{"source": "patent US20260265199A1", "about": "“CRYSTALLINE FORMS OF (R)-2-AMINO-5-(4-(2-(3,5-DIFLUOROPHENYL)-2-HYDROXYACETAMIDO)-2-METHYLPHENYL)-N-ISOPROPYLNICOTINAMIDE AND METHODS FOR USING THE SAME” (HIBERCELL, INC., priority 2023, published 2026)", "experiment": "Dynamic vapor sorption (DVS Intrinsic, 25° C., 0-90% RH)", "format": "physicochemical", "description": "Moisture sorption/desorption data were collected on a DVS Intrinsic (SMS, UK). The sample was placed into a tared sample chamber and automatically weighed. The sample was dried at 40° C. until the dm/dt was less than 0.002% and cooled to 25° C. Set the instrument parameters as below. • Step time (min): 60 min • Sample temperature: 25° C. • Cycle: Full cycle • Adsorption: 0, 10, 20, 30, 40, 50, 60, 70, 80, 90 • Desorption: 80, 70, 60, 50, 40, 30, 20, 10, 0 • Save Data Rate: 5 s • Total flow rate: 200 sccm • Post experiment total flow: 200 sccm\nThe associated DVS isotherm plot of Form A of the hemi-fumarate salt is depicted in FIG. 10.", "note": "Structures can show the parent of a compound that is named as a salt."}
{"smiles": "Cc1cc(NC(=O)[C@H](O)c2cc(F)cc(F)c2)ccc1-c1cnc(N)c(C(=O)NC(C)C)c1", "note": "[Form A of the hemi-fumarate salt, (R)-2-amino-5-(4-(2-(3,5-difluorophenyl)-2-hydroxyacetamido)-2-methylphenyl)-N-isopropylnicotinamide]", "values": [{"measurement": "Crystal form after DVS analysis", "value": "did not change"}, {"measurement": "Hygroscopicity (DVS)", "setting": "25° C.", "value": "slightly hygroscopic"}, {"measurement": "Water uptake (DVS)", "setting": "at 80% RH, 25° C.", "value": 0.66, "unit": "%"}]}
